# In patent US20240150356A1, “Pyrimidine amide compounds and use thereof” (ALPHALA CO., LTD., priority 2019, published 2024):
# Read-outs that look alike come from different tables or passages of the source.
# What was measured:
# Format in all cases: cell-based
# [1] = system: Hep3B cells (hepatocellular carcinoma cell line); test: In vitro MTS cell viability assay (NCI-60 methodology), Hep3B; settings: Homo sapiens, 48 h, 2 days drug incubation, 50% reduction vs time zero, read-out: Hep3B LC50
# Outline: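 Hep3B cells given five 2-fold dilutions of compound for 2 days, with viability by MTS measured at time zero and at end. LC50 is the concentration giving a 50% fall in viable cells relative to the start of treatment, per NCI-60 formula.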
# [2] = system: SW480 (colon adenocarcinoma cell line); test: In vitro MTS cell viability assay (NCI-60 methodology), SW480; settings: Homo sapiens, SW480 cells, read-out: SW480 LC50
# Outline: (§1)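 NCI-60 style: compound added 24 h post-plating at five 2-fold dilutions plus DMSO control, then 2 days' incubation, MTS read-out. Time-zero plate gives Tz; LC50 is the concentration where [(Ti−Tz)/Tz]×100=−50.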
# [3] = system: NCI-H460 (human lung cancer cell line); test: In vitro MTS cell viability assay (NCI-60 methodology), NCI-H460; settings: NCI-H460 cells, read-out: NCI-H460 LC50
# Outline: as §1
compound,measurement,setting,value
"Cc1csc2c(NC(=O)c3ccc([N+](=O)[O-])s3)nc(-c3ccc(C(F)(F)F)cc3)nc12 [Compound 4-2, N-(7-methyl-2-(4-(trifluoromethyl)phenyl)thieno[3,2-d]pyrimidin-4-yl)-5-nitrothiophene-2-carboxamide]",LC50,"[1]; Table 4, MTS",0.97 µM
same,CC50,[2],10.1 µM
same,CC50,[3],1.65 µM
"O=C(Nc1nc(-c2cccc(Cl)c2)nc2c1cnn2-c1ccccc1)c1ccc([N+](=O)[O-])s1 [Compound 5-29, N-(6-(3-chlorophenyl)-1-phenyl-1H-pyrazolo[3,4-d]pyrimidin-4-yl)-5-nitrothiophene-2-carboxamide]",LC50,"[1]; Table 5, MTS",0.21 µM
same,CC50,[2],0.66 µM
same,CC50,[3],0.95 µM
"Cn1ncc2c(NC(=O)c3ccc([N+](=O)[O-])s3)nc(/C=C/c3ccc(C(F)(F)F)cc3)nc21 [Compound 1-11, (E)-N-(1-methyl-6-(4-(trifluoromethyl)styryl)-1H-pyrazolo[3,4-d]pyrimidin-4-yl)-5-nitrothiophene-2-carboxamide]",LC50,"[1]; Table 1, MTS",1.71 µM
same,CC50,[2],2.24 µM
same,CC50,[3],2.62 µM
"Cc1ccc(-n2ncc3c(NC(=O)c4ccc([N+](=O)[O-])s4)nc(-c4ccc(F)nc4)nc32)cc1 [Compound 6-5, N-(6-(6-fluoropyridin-3-yl)-1-(p-tolyl)-1H-pyrazolo[3,4-d]pyrimidin-4-yl)-5-nitrothiophene-2-carboxamide]",LC50,"[1]; Table 6, MTS",0.11 µM
same,CC50,[2],0.65 µM
same,CC50,[3],0.91 µM
"COC(=O)c1ccc(-c2nc(NC(=O)c3ccc([N+](=O)[O-])s3)c3cnn(C4CCN(C(=O)OC(C)(C)C)CC4)c3n2)cc1 [Compound 9-3, tert-butyl 4-(6-(4-(methoxycarbonyl)phenyl)-4-(5-nitrothiophene-2-carboxamido)-1H-pyrazolo[3,4-d]pyrmidin-1-yl)piperidine-1-carboxylate]",LC50,"[1]; Table 9, MTS",0.42 µM
same,CC50,[2],2.72 µM
same,CC50,[3],1.22 µM
"O=C(Nc1nc(-c2ccc(F)cc2)nc2c1cnn2-c1cccc(Cl)c1)c1ccc([N+](=O)[O-])s1 [Compound 6-35, N-(1-(3-chlorophenyl)-6-(4-fluorophenyl)-1H-pyrazolo[3,4-d]pyrimidin-4-yl)-5-nitrothiophene-2-carboxamide]",LC50,"[1]; Table 6, MTS",0.11 µM
same,CC50,[2],0.52 µM
same,CC50,[3],0.5 µM
"O=C(Nc1nc(-c2cccc(Cl)c2)nc2c1cnn2-c1ccc(F)cc1)c1ccc([N+](=O)[O-])s1 [Compound 6-117, N-(6-(3-chlorophenyl)-1-(4-fluorophenyl)-1H-pyrazolo[3,4-d]pyrimidin-4-yl)-5-nitrothiophene-2-carboxamide]",LC50,"[1]; Table 6, MTS",0.15 µM
same,CC50,[2],0.91 µM
same,CC50,[3],0.6 µM
"O=C(Nc1nc(-c2ccc(Cl)nc2)nc2c1cnn2-c1ccc(F)cc1)c1ccc([N+](=O)[O-])s1 [Compound 6-119, N-(6-(6-chloropyridin-3-yl)-1-(4-fluorophenyl)-1H-pyrazolo[3,4-d]pyrimidin-4-yl)-5-nitrothiophene-2-carboxamide]",LC50,"[1]; Table 6, MTS",0.08 µM
same,CC50,[2],0.69 µM
same,CC50,[3],0.53 µM
"O=C(Nc1nc(-c2ccc(F)cc2)nc2c1cnn2-c1ccc(F)cc1)c1ccc([N+](=O)[O-])s1 [Compound 6-115, N-(1,6-bis(4-fluorophenyl)-1H-pyrazolo[3,4-d]pyrimidin-4-yl)-5-nitrothiophene-2-carboxamide]",LC50,"[1]; Table 6, MTS",0.22 µM
same,CC50,[2],1.91 µM
same,CC50,[3],1.13 µM
"O=C(Nc1nc(-c2ccc(F)c(F)c2)nc2c1cnn2-c1ccc(F)cc1)c1ccc([N+](=O)[O-])s1 [Compound 6-125, N-(6-(3,4-difluorophenyl)-1-(4-fluorophenyl)-1H-pyrazolo[3,4-d]pyrimidin-4-yl)-5-nitrothiophen-2-carboxamide]",LC50,"[1]; Table 6, MTS",0.1 µM
same,CC50,[2],2.28 µM
same,CC50,[3],0.35 µM
"O=C(Nc1nc(-c2ccc(F)cc2)nc2c1cnn2C1CCCCC1)c1ccc([N+](=O)[O-])s1 [Compound 10-13, N-(1-cyclohexyl-6-(4-fluorophenyl)-1H-pyrazolo[3,4-d]pyrimidin-4-yl)-5-nitrothiophene-2-carboxamide]",LC50,"[1]; Table 10, MTS",0.7 µM
same,CC50,[2],1.73 µM
same,CC50,[3],2.62 µM
"O=C(Nc1nc(-c2ccc(F)c(F)c2)nc2c1cnn2-c1ccccc1)c1ccc([N+](=O)[O-])s1 [Compound 5-44, N-(6-(3,4-difluorophenyl)-1-phenyl-1H-pyrazolo[3,4-d]pyrimidin-4-yl)-5-nitrothiophene-2-carboxamide]",LC50,"[1]; Table 5, MTS",0.25 µM
same,CC50,[2],1.62 µM
same,CC50,[3],4.64 µM
"CCCOc1ccc(-c2nc(NC(=O)c3ccc([N+](=O)[O-])s3)c3cnn(-c4ccc(F)cc4)c3n2)cn1 [Compound 6-133, N-(1-(4-fluorophenyl)-6-(6-propoxypyridin-3-yl)-1H-pyrazolo[3,4-d]pyrimidin-4-yl)-5-nitrothiophene-2-carboxamide]",LC50,"[1]; Table 6, MTS",0.16 µM
same,CC50,[2],0.43 µM
same,CC50,[3],0.49 µM
"O=C(Nc1nc(-c2ccc(F)cc2)nc2c1cnn2-c1ccc(C(F)(F)F)cn1)c1ccc([N+](=O)[O-])s1 [Compound 7-1, N-(6-(4-fluorophenyl)-1-(5-(trifluoromethyl)pyridin-2-yl)-1H-pyrazolo[3,4-d]pyrimidin-4-yl)-5-nitrothiophene-2-carboxamide]",LC50,"[1]; Table 7, MTS",0.26 µM
same,CC50,[2],> 20 µM
same,CC50,[3],8.63 µM
"CC(C)(C)n1ncc2c(NC(=O)c3ccc([N+](=O)[O-])s3)nc(-c3ccc(OC(F)(F)F)cc3)nc21 [Compound 1-27, N-(1-(tert-butyl)-6-(4-(trifluoromethoxy)phenyl)-1H-pyrazolo[3,4-d]pyrimidin-4-yl)-5-nitrothiophene-2-carboxamide]",LC50,"[1]; Table 1, MTS",0.61 µM
same,CC50,[2],4.14 µM
same,CC50,[3],1.99 µM
"O=C(Nc1nc(-c2ccc(Cl)cc2)nc2c1cnn2-c1ccc(C(F)(F)F)cn1)c1ccc([N+](=O)[O-])s1 [Compound 7-3, N-(6-(4-chlorophenyl)-1-(5-(trifluoromethyl)pyridin-2-yl)-1H-pyrazolo[3,4-1]pyrimidin-4-yl)-5-nitrothiophene-2-carboxamide]",LC50,"[1]; Table 7, MTS",0.13 µM
same,CC50,[2],0.53 µM
same,CC50,[3],0.4 µM
"O=C(Nc1nc(-c2ccc(Cl)nc2)nc2c1cnn2C1CCC(F)(F)CC1)c1ccc([N+](=O)[O-])s1 [Compound 10-57, N-(6-(6-chloropyridin-3-yl)-1-(4,4-difluorocyclohexyl)-TH-pyrazolo[3,4-d]pyrimidin-4-yl)-5-nitrothiophene-2-carboxamide]",LC50,"[1]; Table 10, MTS",0.57 µM
same,CC50,[2],1.34 µM
same,CC50,[3],1.3 µM
"O=C(Nc1nc(-c2cccnc2)nc2c1cnn2-c1ccc(F)cc1)c1ccc([N+](=O)[O-])s1 [Compound 6-111, N-(1-(4-fluorophenyl)-6-(pyridin-3-yl)-1H-pyrazolo[3,4-d]pyrimidin-4-yl)-5-nitrothiophene-2-carboxamide]",LC50,"[1]; Table 6, MTS",0.09 µM
same,CC50,[2],> 4 µM
same,CC50,[3],1.87 µM
"O=C(Nc1nc(-c2cncnc2)nc2c1cnn2-c1ccc(F)cc1)c1ccc([N+](=O)[O-])s1 [Compound 6-112, N-(1-(4-fluorophenyl)-6-(pyrimidin-5-yl)-1H-pyrazolo[3,4-d]pyrimidin-4-yl)-5-nitrothiophene-2-carboxamide]",LC50,"[1]; Table 6, MTS",0.22 µM
same,CC50,[2],0.81 µM
same,CC50,[3],0.97 µM
CCOC[C@@H]1CCCN1c1nc(NC(=O)c2ccc([N+](=O)[O-])s2)c2cnn(-c3ccc(F)cc3)c2n1 [Compound 6-104],LC50,"[1]; Table 6, MTS",0.38 µM
same,CC50,[2],0.65 µM
same,CC50,[3],0.86 µM
"CC(C)(C)c1ccc(-n2ncc3c(NC(=O)c4ccc([N+](=O)[O-])s4)nc(-n4cccn4)nc32)cc1 [Compound 6-75, N-(1-(4-tert-butyl)phenyl)-6-(4-(1H-pyrazol-1-yl)-1H-pyrazolo[3,4-d]pyrimidin-4-yl)-5-nitrothiophene-2-carboxamide]",LC50,"[1]; Table 6, MTS",0.24 µM
same,CC50,[2],5.48 µM
same,CC50,[3],1.28 µM
